PubChem BioAssay AID1963429 (Molecular Pharmacology Branch, DTP, NCI, 2024)
Where “and” joins values, the source holds several entries; their conditions need not be identical. Identical values can stand only once.

System: 126254-015-R-J1-PDC complex spheroid growth, % test/control
Assay: Anticancer human tumor 126254-015-R-J1-PDC patient-derived soft tissue sarcoma cell line growth inhibition [Asc]
Conditions: for viability, T/C: stronger effect = lower value; active = viability on the fitted dose curve at most 10% of control; inactive = the rest
How it was run: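 Spheroid model: tumor line + HUVEC + hMSC. Single agents and combinations; top conc. at/near clinical Cmax (10 microM if undetermined), half-log dilutions. DMSO stocks at 800-fold test concentration.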

[1] = curve of first compound, second compound 0.1 µM
[2] = curve of first compound, second compound 0.316 µM
[3] = curve of first compound, second compound 1 µM
[4] = curve of first compound, second compound 3.16 µM
[5] = curve of first compound, second compound 10 µM
[6] = second compound 0.1 µM, first compound 0.0316 µM
[7] = second compound 0.1 µM, first compound 0.1 µM
[8] = second compound 0.1 µM, first compound 0.316 µM
[9] = second compound 0.1 µM, first compound 1 µM
[10] = second compound 0.316 µM, first compound 0.0316 µM
[11] = second compound 0.316 µM, first compound 0.1 µM
[12] = second compound 0.316 µM, first compound 0.316 µM
[13] = second compound 0.316 µM, first compound 1 µM
[14] = second compound 1 µM, first compound 0.0316 µM
[15] = second compound 1 µM, first compound 0.1 µM
[16] = second compound 1 µM, first compound 0.316 µM
[17] = second compound 1 µM, first compound 1 µM
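Also: spheroids exposed to compound for seven days.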
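For viability, T/C in this document: 100% = DMSO vehicle control wells.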

CCN1C(C(=O)NC23CCC(C(=O)O)(CC2)CC3)C(c2cccc(Cl)c2F)C2(C(=O)Nc3cc(Cl)ccc32)C12CCCCC2 (configuration not stated) + Cc1c(S(C)(=O)=O)c(-c2cc(F)cc(N3CCN(c4ccc(NS(=O)(=O)c5ccc(NC(CCN6CCC(C(=O)OCCCP(=O)(O)O)CC6)CSc6ccccc6)c(S(=O)(=O)C(F)(F)F)c5)cc4)CC3)c2)c(-c2ccc(Cl)cc2)n1C(C)C
inactive: viability, T/C (second compound 0.1 µM, first compound 0.00949 µM) 90.7% | viability, T/C (second compound 0.1 µM, first compound 0.03 µM) 85.1% | viability, T/C (second compound 0.1 µM, first compound 0.0949 µM) 91.7% | viability, T/C (second compound 0.1 µM, first compound 0.3 µM) 88.6% | viability, T/C (second compound 0.1 µM, first compound 0.949 µM) 93.9% | viability, T/C (second compound 0.1 µM, first compound 3 µM) 88.3% | viability, T/C (second compound 0.316 µM, first compound 0.00949 µM) 83.3% | viability, T/C (second compound 0.316 µM, first compound 0.03 µM) 82.4% | viability, T/C (second compound 0.316 µM, first compound 0.0949 µM) 81.9% | viability, T/C (second compound 0.316 µM, first compound 0.3 µM) 79.7% | viability, T/C (second compound 0.316 µM, first compound 0.949 µM) 74.9% | viability, T/C (second compound 0.316 µM, first compound 3 µM) 76.9% | viability, T/C (second compound 1 µM, first compound 0.00949 µM) 86.1% | viability, T/C (second compound 1 µM, first compound 0.03 µM) 84.4% | viability, T/C (second compound 1 µM, first compound 0.0949 µM) 87.1% | viability, T/C (second compound 1 µM, first compound 0.3 µM) 79.4% | viability, T/C (second compound 1 µM, first compound 0.949 µM) 82.7% | viability, T/C (second compound 1 µM, first compound 3 µM) 71.4% | viability, T/C (second compound 3.16 µM, first compound 0.00949 µM) 76% | viability, T/C (second compound 3.16 µM, first compound 0.03 µM) 83.8% | viability, T/C (second compound 3.16 µM, first compound 0.0949 µM) 77.2% | viability, T/C (second compound 3.16 µM, first compound 0.3 µM) 78.7% | viability, T/C (second compound 3.16 µM, first compound 0.949 µM) 81.3% | viability, T/C (second compound 3.16 µM, first compound 3 µM) 70.5% | viability, T/C (second compound 10 µM, first compound 0.00949 µM) 82.3% | viability, T/C (second compound 10 µM, first compound 0.03 µM) 86.5% | viability, T/C (second compound 10 µM, first compound 0.0949 µM) 88.8% | viability, T/C (second compound 10 µM, first compound 0.3 µM) 82.5% | viability, T/C (second compound 10 µM, first compound 0.949 µM) 75.5% | viability, T/C (second compound 10 µM, first compound 3 µM) 72.2%
> 3 µM: IC50 [1] | IC50 [2] | IC50 [3] | IC50 [4] | IC50 [5]

C#Cc1c(F)ccc2cc(O)cc(-c3ncc4c(N5CC6CCC(C5)N6)nc(OCC56CCCN5CC(F)C6)nc4c3F)c12 (configuration not stated)
inactive: viability, T/C (compound 0.0316 µM) 97.4% and 92.6% and 97.8% | viability, T/C (compound 0.1 µM) 92.8% and 89.8% and 108% | viability, T/C (compound 0.316 µM) 100% and 97.5% and 103% | viability, T/C (compound 1 µM) 94.1% and 97.4% and 93.6% | viability, T/C (compound 3.16 µM) 101% and 95% and 92.8% | viability, T/C (compound 10 µM) 82.5% and 76.4% and 72.9%
> 10 µM: IC50 (curve of compound)

C=CC(=O)N1CCN(c2nc(=O)n(-c3c(C)ccnc3C(C)C)c3nc(-c4c(O)cccc4F)c(F)cc23)C(C)C1 (configuration not stated) + CNC(C)C(=O)NC1CN(S(=O)(=O)c2cccc(S(=O)(=O)N3CCC4CCC(C(=O)NC(c5ccccc5)c5ccccc5)N4C(=O)C(NC(=O)C(C)NC)C3)c2)CCC2CCC(C(=O)NC(c3ccccc3)c3ccccc3)N2C1=O
inactive: viability, T/C (second compound 0.01 µM, first compound 0.0316 µM) 94.4% | viability, T/C (second compound 0.01 µM, first compound 0.1 µM) 99.5% | viability, T/C (second compound 0.01 µM, first compound 0.316 µM) 94.5% | viability, T/C (second compound 0.01 µM, first compound 1 µM) 110% | viability, T/C (second compound 0.01 µM, first compound 3.16 µM) 101% | viability, T/C (second compound 0.01 µM, first compound 10 µM) 82.3% | viability, T/C (second compound 0.0316 µM, first compound 0.0316 µM) 85.1% | viability, T/C (second compound 0.0316 µM, first compound 0.1 µM) 84.8% | viability, T/C (second compound 0.0316 µM, first compound 0.316 µM) 86.7% | viability, T/C (second compound 0.0316 µM, first compound 1 µM) 84.2% | viability, T/C (second compound 0.0316 µM, first compound 3.16 µM) 87.1% | viability, T/C (second compound 0.0316 µM, first compound 10 µM) 75.2% | viability, T/C [6] 70.7% | viability, T/C [7] 78% | viability, T/C [8] 81.5% | viability, T/C [9] 75.7% | viability, T/C (second compound 0.1 µM, first compound 3.16 µM) 82.7% | viability, T/C (second compound 0.1 µM, first compound 10 µM) 67.3% | viability, T/C [10] 69.2% | viability, T/C [11] 77.2% | viability, T/C [12] 71.5% | viability, T/C [13] 70.9% | viability, T/C (second compound 0.316 µM, first compound 3.16 µM) 73.9% | viability, T/C (second compound 0.316 µM, first compound 10 µM) 67.7% | viability, T/C [14] 62.8% | viability, T/C [15] 72.4% | viability, T/C [16] 67.5% | viability, T/C [17] 72% | viability, T/C (second compound 1 µM, first compound 3.16 µM) 70.3% | viability, T/C (second compound 1 µM, first compound 10 µM) 65.5%
> 10 µM: IC50 (curve of first compound, second compound 0.01 µM) | IC50 (curve of first compound, second compound 0.0316 µM) | IC50 [1] | IC50 [2] | IC50 [3]

CCN1CCN(Cc2ccc(Nc3ncc(F)c(-c4cc(F)c5nc(C)n(C(C)C)c5c4)n3)nc2)CC1 + Cc1c(S(C)(=O)=O)c(-c2cc(F)cc(N3CCN(c4ccc(NS(=O)(=O)c5ccc(NC(CCN6CCC(C(=O)OCCCP(=O)(O)O)CC6)CSc6ccccc6)c(S(=O)(=O)C(F)(F)F)c5)cc4)CC3)c2)c(-c2ccc(Cl)cc2)n1C(C)C
inactive: viability, T/C (second compound 0.1 µM, first compound 0.00316 µM) 99.3% | viability, T/C (second compound 0.1 µM, first compound 0.01 µM) 95.5% | viability, T/C [6] 88.4% | viability, T/C [7] 90.1% | viability, T/C [8] 110% | viability, T/C [9] 98.4% | viability, T/C (second compound 0.316 µM, first compound 0.00316 µM) 87.8% | viability, T/C (second compound 0.316 µM, first compound 0.01 µM) 89.1% | viability, T/C [10] 84.4% | viability, T/C [11] 95.5% | viability, T/C [12] 90.3% | viability, T/C [13] 87% | viability, T/C (second compound 1 µM, first compound 0.00316 µM) 86.5% | viability, T/C (second compound 1 µM, first compound 0.01 µM) 81.7% | viability, T/C [14] 93.3% | viability, T/C [15] 86.4% | viability, T/C [16] 97.9% | viability, T/C [17] 73.3% | viability, T/C (second compound 3.16 µM, first compound 0.00316 µM) 96.6% | viability, T/C (second compound 3.16 µM, first compound 0.01 µM) 87.7% | viability, T/C (second compound 3.16 µM, first compound 0.0316 µM) 90.1% | viability, T/C (second compound 3.16 µM, first compound 0.1 µM) 72.4% | viability, T/C (second compound 3.16 µM, first compound 0.316 µM) 86.6% | viability, T/C (second compound 3.16 µM, first compound 1 µM) 87.3% | viability, T/C (second compound 10 µM, first compound 0.00316 µM) 86.5% | viability, T/C (second compound 10 µM, first compound 0.01 µM) 90.4% | viability, T/C (second compound 10 µM, first compound 0.0316 µM) 86.1% | viability, T/C (second compound 10 µM, first compound 0.1 µM) 98% | viability, T/C (second compound 10 µM, first compound 0.316 µM) 87.5% | viability, T/C (second compound 10 µM, first compound 1 µM) 73.8%
> 1 µM: IC50 [1] | IC50 [2] | IC50 [3] | IC50 [4] | IC50 [5]
